Paper PMC10823224, “γδ T cell antigen receptor polyspecificity enables T cell responses to a broad range of immune challenges” (Proceedings of the National Academy of Sciences of the …, 2024)

Molecular target: T1, human recombinant TG2 (Homo sapiens, UniProt P21980)
T1 construct: gene TGM2; recombinant, enzymatically active
T1 sequence (P21980 2-687): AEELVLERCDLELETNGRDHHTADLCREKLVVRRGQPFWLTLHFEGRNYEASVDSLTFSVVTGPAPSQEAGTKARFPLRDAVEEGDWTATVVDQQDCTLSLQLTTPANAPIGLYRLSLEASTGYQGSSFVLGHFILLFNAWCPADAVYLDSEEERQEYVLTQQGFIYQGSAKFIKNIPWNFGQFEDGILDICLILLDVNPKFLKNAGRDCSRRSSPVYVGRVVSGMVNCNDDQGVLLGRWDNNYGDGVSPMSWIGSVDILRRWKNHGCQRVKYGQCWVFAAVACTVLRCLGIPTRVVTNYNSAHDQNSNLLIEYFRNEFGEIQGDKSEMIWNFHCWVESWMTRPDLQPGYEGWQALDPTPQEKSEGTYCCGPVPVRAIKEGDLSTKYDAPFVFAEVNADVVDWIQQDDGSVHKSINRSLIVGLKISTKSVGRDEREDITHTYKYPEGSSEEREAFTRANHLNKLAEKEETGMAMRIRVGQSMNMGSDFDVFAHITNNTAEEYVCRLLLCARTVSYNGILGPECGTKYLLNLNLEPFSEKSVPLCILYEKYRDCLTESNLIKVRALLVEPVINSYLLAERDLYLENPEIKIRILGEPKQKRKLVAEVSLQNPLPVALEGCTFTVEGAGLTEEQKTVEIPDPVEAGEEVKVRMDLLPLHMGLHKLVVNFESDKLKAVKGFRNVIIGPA
Experiment: in vitro serotonylation of Rac1 peptide, ESI-MS
Assay type: biochemical
Conditions: 1 mM serotonin, biotinylated Rac1 peptide co-substrate, 10 mM CaCl2, pH 7.4, 37 °C overnight

## NCCc1c[nH]c2ccc(O)cc12 [5-HT]
  in vitro serotonylation of Rac1 peptide, ESI-MS: the peptide was modified with a single serotonin moiety
